According to ChEMBL document CHEMBL5696442, “Discovery of type II inhibitors of TGFβ-activated kinase 1 (TAK1) and mitogen-activated protein kinase kinase kinase kinase 2 (MAP4K2)” (J Med Chem, 2015):

How the values were obtained:
[1] = target: Tyrosine-protein kinase JAK2 (Homo sapiens) (UniProt O60674); experiment: Inhibition of JAK2 JH1 catalytic domain (unknown origin) at 10 uM by Ambit Kinomescan binding assay relative to control
[2] = target: Cyclin-dependent kinase 17 (Homo sapiens) (UniProt Q00537); experiment: Inhibition of PCTK2 (unknown origin) at 10 uM by Ambit Kinomescan binding assay relative to control
[3] = target: T1, Eukaryotic elongation factor 2 kinase (Homo sapiens) (UniProt O00418); experiment: Inhibition of eEF2K ATP labeling site harbouring YIKYNSNSGFVR in human A-375 cells at 5 uM by KiNativ Profiling analysis relative to control; format: cell-based
T1 sequence (whole entry): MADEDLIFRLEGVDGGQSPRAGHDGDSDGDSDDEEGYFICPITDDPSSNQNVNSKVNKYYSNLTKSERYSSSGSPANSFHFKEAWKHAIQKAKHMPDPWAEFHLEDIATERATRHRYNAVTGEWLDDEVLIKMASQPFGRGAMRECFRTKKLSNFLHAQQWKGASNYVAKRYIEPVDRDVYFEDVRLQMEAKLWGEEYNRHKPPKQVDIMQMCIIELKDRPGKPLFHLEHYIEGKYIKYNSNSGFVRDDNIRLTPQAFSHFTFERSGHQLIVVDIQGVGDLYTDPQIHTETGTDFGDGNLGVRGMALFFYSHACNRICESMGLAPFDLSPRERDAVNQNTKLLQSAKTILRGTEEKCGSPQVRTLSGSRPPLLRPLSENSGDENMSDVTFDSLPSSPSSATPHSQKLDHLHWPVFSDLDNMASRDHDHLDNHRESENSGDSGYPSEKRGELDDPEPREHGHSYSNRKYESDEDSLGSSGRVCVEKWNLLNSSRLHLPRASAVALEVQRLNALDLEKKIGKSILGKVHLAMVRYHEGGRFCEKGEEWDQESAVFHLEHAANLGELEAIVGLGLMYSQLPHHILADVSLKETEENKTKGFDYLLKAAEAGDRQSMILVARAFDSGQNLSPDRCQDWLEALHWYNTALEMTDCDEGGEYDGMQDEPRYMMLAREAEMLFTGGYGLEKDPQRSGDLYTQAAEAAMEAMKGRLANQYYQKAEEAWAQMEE

[4] = target: Calcium/calmodulin-dependent protein kinase type II subunit gamma (Homo sapiens) (UniProt Q13555); experiment: Inhibition of CaMK2g K1 labeling site in human Huh-7 cells at 10 uM by KiNativ Profiling analysis relative to control; format: cell-based
[5] = target: Ribosomal protein S6 kinase delta-1 (Homo sapiens) (UniProt Q96S38); experiment: Inhibition of RPS6KC1 domain 1 ATP labeling site in human Huh-7 cells at 10 uM by KiNativ Profiling analysis relative to control; format: cell-based
[6] = target: Mitogen-activated protein kinase kinase kinase 11 (Homo sapiens) (UniProt Q16584); experiment: Inhibition of MLK3 K2 labeling site in human Huh-7 cells at 1 uM by KiNativ Profiling analysis relative to control; format: cell-based
[7] = target: Tyrosine-protein kinase JAK3 (Homo sapiens) (UniProt P52333); experiment: Inhibition of JAK3 JH1catalytic domain (unknown origin) at 10 uM by Ambit Kinomescan binding assay relative to control; values are per cent of control
[8] = test system: Serine/threonine-protein kinase B-raf (Homo sapiens), P15056 [V600E]; experiment: Inhibition of BRAF V600E mutant (unknown origin) at 1 uM by Ambit Kinomescan binding assay relative to control
[9] = target: Serine/threonine-protein kinase VRK2 (Homo sapiens) (UniProt Q86Y07); experiment: Inhibition of VRK2 Lys2 labeling site in human A-375 cells at 0.05 uM by KiNativ Profiling analysis relative to control; format: cell-based
[10] = target: Calcium/calmodulin-dependent protein kinase type 1D (Homo sapiens) (UniProt Q8IU85); experiment: Inhibition of CAMK1D (unknown origin) at 1 uM by Ambit Kinomescan binding assay relative to control; values are per cent of control
[11] = target: Serine/threonine-protein kinase 4 (Homo sapiens) (UniProt Q13043); experiment: Inhibition of MST1 Lys1 labeling site harbouring AIHKETGQIVAIKQVPVESDLQEIIK in human A-375 cells at 5 uM by KiNativ Profiling analysis relative to control
[12] = target: Cyclin-dependent kinase 9 (Homo sapiens) (UniProt P50750); experiment: Inhibition of CDK9 Lys2 labeling site in human Huh-7 cell lysate at 1 uM by KiNativ Profiling analysis relative to control; format: subcellular
[13] = target: T2, Scaffold protein ILK (Homo sapiens) (UniProt Q13418); experiment: Inhibition of ILK Lys1 labeling site in human Huh-7 cell lysate at 1 uM by KiNativ Profiling analysis relative to control; format: subcellular
T2 sequence (whole entry): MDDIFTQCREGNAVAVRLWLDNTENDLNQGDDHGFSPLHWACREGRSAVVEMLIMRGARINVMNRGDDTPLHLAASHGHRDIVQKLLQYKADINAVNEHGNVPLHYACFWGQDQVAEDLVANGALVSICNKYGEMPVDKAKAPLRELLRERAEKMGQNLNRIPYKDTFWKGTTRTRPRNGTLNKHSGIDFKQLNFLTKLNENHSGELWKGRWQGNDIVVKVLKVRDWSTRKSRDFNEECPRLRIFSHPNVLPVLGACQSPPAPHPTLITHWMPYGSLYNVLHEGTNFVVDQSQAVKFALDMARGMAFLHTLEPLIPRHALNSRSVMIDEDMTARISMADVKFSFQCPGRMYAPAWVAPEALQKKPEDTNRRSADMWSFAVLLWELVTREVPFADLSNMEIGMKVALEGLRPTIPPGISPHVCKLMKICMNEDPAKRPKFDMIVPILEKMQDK

[14] = target: Serine/threonine-protein kinase MARK2 (Homo sapiens) (UniProt Q7KZI7); experiment: Inhibition of MARK2 Lys1 labeling site harbouring HILTGKEVAVKIIDKTQLNSSSLQK in human Huh-7 cell lysate at 1 uM by KiNativ Profiling analysis relative to control; format: subcellular
Chain of Serine/threonine-protein kinase MARK2 (Homo sapiens) (Q7KZI7 whole entry): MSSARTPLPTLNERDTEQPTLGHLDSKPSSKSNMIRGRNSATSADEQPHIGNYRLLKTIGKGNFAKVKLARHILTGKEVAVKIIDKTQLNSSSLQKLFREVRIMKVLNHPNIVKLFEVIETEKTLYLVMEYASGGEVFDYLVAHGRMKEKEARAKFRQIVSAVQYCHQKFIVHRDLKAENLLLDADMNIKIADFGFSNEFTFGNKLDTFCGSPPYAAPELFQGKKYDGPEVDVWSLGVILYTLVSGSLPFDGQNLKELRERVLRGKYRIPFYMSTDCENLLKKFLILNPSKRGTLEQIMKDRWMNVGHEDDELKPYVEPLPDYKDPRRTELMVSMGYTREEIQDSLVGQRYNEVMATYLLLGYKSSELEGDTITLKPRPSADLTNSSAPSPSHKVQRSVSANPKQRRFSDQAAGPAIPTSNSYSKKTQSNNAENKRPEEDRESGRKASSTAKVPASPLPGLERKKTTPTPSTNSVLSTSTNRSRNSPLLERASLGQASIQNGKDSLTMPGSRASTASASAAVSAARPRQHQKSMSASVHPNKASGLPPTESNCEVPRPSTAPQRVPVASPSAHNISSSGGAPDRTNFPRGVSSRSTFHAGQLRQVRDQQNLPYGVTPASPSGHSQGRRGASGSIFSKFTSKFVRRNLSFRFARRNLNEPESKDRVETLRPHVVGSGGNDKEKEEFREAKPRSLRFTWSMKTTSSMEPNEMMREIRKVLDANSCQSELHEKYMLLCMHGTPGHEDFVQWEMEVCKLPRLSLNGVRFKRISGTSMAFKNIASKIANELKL

Chain of Cyclin-dependent kinase 9 (Homo sapiens) (P50750 whole entry): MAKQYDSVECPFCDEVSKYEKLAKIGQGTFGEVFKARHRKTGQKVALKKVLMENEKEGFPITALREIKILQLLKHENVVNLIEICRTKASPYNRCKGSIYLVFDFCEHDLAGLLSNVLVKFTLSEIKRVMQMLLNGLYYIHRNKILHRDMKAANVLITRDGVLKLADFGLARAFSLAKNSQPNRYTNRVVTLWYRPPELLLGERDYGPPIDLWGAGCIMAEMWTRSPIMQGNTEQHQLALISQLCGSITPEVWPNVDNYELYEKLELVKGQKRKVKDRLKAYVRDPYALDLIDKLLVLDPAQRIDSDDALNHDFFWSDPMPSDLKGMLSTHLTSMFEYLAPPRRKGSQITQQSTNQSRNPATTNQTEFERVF
Chain of Mitogen-activated protein kinase kinase kinase 11 (Homo sapiens) (Q16584 whole entry, looked up, the tested form may be a part): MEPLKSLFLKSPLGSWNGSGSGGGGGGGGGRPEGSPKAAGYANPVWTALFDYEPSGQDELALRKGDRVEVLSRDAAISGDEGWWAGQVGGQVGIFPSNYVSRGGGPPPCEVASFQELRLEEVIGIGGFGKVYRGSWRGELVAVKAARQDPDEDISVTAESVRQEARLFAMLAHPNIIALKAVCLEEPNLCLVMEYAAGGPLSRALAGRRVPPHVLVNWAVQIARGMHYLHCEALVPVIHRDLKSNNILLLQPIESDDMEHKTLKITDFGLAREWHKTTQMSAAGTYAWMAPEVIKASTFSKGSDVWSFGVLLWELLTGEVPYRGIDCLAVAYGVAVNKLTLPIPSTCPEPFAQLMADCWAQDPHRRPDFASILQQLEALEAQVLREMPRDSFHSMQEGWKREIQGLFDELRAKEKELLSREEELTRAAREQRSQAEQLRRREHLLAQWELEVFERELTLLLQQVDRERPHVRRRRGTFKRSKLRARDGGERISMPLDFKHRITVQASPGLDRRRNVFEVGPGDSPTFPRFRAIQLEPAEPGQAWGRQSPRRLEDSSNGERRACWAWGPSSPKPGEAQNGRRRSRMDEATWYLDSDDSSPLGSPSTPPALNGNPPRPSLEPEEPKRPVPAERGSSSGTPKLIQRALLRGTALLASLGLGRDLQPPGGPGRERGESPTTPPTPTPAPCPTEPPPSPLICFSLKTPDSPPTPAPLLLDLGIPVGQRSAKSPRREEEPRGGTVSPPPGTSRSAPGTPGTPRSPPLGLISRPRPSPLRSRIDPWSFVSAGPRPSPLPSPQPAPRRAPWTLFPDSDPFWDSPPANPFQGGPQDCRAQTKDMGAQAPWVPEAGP
Chain of Tyrosine-protein kinase JAK2 (Homo sapiens) (O60674 whole entry, the tested form may be a part): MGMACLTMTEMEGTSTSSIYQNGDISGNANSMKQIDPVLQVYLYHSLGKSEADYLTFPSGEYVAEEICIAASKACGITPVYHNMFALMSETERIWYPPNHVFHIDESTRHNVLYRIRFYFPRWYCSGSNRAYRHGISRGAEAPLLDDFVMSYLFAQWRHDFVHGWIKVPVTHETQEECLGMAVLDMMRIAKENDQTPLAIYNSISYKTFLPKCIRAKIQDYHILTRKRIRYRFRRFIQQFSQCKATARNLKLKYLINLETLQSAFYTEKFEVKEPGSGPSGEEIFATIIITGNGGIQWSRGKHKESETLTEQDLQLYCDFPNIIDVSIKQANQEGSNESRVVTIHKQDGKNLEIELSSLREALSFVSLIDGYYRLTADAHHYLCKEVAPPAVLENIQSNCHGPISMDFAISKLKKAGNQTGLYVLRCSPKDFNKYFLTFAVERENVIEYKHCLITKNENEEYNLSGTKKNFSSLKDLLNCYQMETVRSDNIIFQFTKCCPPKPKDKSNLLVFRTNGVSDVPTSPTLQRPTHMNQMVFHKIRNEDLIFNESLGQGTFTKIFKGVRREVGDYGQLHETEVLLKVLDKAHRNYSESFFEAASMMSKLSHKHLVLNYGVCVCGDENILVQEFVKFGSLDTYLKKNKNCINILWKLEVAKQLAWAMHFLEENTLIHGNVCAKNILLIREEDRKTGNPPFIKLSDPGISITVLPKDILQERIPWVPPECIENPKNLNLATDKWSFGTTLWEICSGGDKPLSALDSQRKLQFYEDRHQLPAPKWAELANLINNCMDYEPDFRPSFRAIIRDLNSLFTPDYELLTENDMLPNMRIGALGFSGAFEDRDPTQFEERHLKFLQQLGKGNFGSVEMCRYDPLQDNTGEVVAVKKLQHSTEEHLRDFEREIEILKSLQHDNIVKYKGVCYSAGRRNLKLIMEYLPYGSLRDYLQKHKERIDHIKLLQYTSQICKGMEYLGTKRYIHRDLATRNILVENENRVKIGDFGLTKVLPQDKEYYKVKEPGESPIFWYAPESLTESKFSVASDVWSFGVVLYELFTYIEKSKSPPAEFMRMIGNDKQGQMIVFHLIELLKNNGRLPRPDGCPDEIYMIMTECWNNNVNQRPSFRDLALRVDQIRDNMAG
Chain of Calcium/calmodulin-dependent protein kinase type II subunit gamma (Homo sapiens) (Q13555 whole entry, the tested form may be a part): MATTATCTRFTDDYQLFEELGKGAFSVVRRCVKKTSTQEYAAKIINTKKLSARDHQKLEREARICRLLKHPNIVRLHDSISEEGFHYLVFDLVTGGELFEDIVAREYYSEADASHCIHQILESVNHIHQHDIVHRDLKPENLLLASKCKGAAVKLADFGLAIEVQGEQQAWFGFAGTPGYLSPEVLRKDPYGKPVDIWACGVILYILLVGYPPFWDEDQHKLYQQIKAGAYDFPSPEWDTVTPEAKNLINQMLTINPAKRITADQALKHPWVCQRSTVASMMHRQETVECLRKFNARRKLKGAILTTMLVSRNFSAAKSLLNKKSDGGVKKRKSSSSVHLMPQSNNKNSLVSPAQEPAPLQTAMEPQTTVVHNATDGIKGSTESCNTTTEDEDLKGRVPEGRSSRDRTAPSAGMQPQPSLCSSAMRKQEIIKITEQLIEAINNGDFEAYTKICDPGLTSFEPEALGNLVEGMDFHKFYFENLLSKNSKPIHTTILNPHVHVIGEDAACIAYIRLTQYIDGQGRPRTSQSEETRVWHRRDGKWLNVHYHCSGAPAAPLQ
Chain of Calcium/calmodulin-dependent protein kinase type 1D (Homo sapiens) (Q8IU85 whole entry, looked up): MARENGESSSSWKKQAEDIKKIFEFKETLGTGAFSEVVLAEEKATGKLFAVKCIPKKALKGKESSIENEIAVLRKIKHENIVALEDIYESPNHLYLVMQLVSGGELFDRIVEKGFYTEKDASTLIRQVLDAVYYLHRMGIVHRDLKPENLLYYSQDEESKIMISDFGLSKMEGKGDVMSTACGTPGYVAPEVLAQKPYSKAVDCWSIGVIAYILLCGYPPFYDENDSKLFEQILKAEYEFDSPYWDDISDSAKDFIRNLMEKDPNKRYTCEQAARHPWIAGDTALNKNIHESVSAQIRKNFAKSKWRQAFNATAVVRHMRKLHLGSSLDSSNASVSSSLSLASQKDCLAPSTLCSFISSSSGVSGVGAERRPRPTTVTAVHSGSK
Chain of Serine/threonine-protein kinase 4 (Homo sapiens) (Q13043 whole entry, looked up): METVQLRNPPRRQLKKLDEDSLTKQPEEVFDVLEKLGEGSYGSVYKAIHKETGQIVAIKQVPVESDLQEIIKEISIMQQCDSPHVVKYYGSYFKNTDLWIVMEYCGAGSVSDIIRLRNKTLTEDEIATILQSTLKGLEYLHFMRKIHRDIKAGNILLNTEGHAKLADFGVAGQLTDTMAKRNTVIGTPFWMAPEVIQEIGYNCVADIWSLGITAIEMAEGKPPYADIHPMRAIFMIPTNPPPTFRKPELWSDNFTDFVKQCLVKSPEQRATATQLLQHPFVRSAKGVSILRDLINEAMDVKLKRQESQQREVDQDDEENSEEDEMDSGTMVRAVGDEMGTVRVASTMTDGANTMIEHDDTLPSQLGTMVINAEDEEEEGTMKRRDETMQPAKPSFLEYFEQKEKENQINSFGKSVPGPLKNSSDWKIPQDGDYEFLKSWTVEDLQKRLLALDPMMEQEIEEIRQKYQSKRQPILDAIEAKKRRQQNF

Which results are given for `CCN1CCN(Cc2ccc(NC(=O)c3ccc(C)c(Oc4ccnc5[nH]ccc45)c3)cc2C(F)(F)F)CC1`?
inhibition [1]: 11%; inhibition [2]: 0.1%; inhibition [3]: -2.4%; inhibition [4]: 0%; inhibition [5]: 15.4%; inhibition [6]: -1.6%; percent of control [7]: 2.4%

What does the source list for `CCN1CCN(Cc2ccc(NC(=O)c3ccc(C)c(/C=C/c4cnc5[nH]ccc5c4OC)c3)cc2C(F)(F)F)CC1`?
inhibition [8]: 7.4%; inhibition [9]: 28.7%; residual activity [10]: 100%; inhibition [11]: 16.1%

`CNc1cc(Oc2cc(C(=O)Nc3cc(N4CCN(C)CC4)cc(C(F)(F)F)c3)ccc2C)ncn1` was tested. Which inhibition [12] did it give?
The inhibition was 11.9%.

What about the inhibition [13] of the same compound?
The inhibition was -6.9%.

What about the inhibition [14] of the same compound?
Its inhibition is -1.9%.
